In patent publication US20060216253A1, “Whitening cosmetics containing morus alba extracts” (Time and Cross, Inc., priority 2005, published 2006):

Columns and labels:
melan-a cell line = assay: Melanin production in melan-a cell line; type: cell-based; details: melan-a cells; for Melanin production (%): 72 hr
Description: Melan-a cells were grown in 10 mL of RPMI 1640 medium supplemented with antibiotics, 10% fetal bovine serum (FBS), and 20 nM TPA. The cell suspension was inoculated in a 24-well plate (10^5 cells/mL) and the cells were allowed to completely adhere to the plate for 24 hr. Test samples dissolved in DMSO were added to the plate and incubated at 37° C. for 72 hr in a CO2 incubator. The culture medium was then thoroughly removed and the cells were isolated through trypsin treatment. The suspensions were then centrifuged for 5 min to collect cells, which were then treated with 5% trichloroacetic acid (TCA), stirred and centrifuged to precipitate the melanin. Melanin was washed with PBS and dissolved in 1 N NaOH. Absorbance at 475 nm was measured. Melanin concentration was determined from a standard concentration curve of synthetic melanin (SIGMA Co., USA).

Mushroom Tyrosinase [1] = assay: Inhibitory effects on mushroom tyrosinase (dopachrome, OD490, 15 min); type: biochemical
Description: (§1) L-Tyrosine, the substrate for tyrosinase, was dissolved in 50 mM sodium phosphate buffer (pH6.8) to prepare a solution of 0.1 mg/mL L-tyrosine. […] 100 μL of the L-tyrosine solution was introduced into a test tube, and 100 μL of 50 mM sodium phosphate buffer (pH6.8) with or without test samples were added thereto, and then 10 μL of 200 U/mL tyrosinase were mixed and incubated at 37° C. for 15 min.
The amount of dopachrome in the reaction mixture was determined spectrophotmetrically using absorbance measurement at 490 nm.

Mushroom Tyrosinase [2] = assay: Extended duration of mushroom tyrosinase inhibition (up to 24 hours); type: biochemical
Description: as §1
Using the experimental conditions described in the Mushroom Tyrosinase experiment described above, the reaction mixtures, containing various concentrations from 1 μg/mL to 50 μg/mL of the agents assayed, were incubated at 37° C. and spectrophotometric measurements of dopachrome were made at time intervals of up to 24 hours.

melanocytes = assay: Microscopic observation of pigmentation of confluent melanocyte monolayer; type: cell-based; details: cell line not specified
Description: The pigmentation of a confluent monolayer of melanocytes is visible microscopically, as the cells contain black melanin pigment.

Human Tyrosinase = biological target: T1, Human Tyrosinase (Homo sapiens, UniProt P14679); assay: Inhibitory effects on human tyrosinase prepared from HM3KO human melanoma cells; type: biochemical
T1 construct: endogenous in cells; host or cells: HM3KO human melanoma cells (Triton X-100 extract, dialysed supernatant)
T1 sequence (P14679 19-529): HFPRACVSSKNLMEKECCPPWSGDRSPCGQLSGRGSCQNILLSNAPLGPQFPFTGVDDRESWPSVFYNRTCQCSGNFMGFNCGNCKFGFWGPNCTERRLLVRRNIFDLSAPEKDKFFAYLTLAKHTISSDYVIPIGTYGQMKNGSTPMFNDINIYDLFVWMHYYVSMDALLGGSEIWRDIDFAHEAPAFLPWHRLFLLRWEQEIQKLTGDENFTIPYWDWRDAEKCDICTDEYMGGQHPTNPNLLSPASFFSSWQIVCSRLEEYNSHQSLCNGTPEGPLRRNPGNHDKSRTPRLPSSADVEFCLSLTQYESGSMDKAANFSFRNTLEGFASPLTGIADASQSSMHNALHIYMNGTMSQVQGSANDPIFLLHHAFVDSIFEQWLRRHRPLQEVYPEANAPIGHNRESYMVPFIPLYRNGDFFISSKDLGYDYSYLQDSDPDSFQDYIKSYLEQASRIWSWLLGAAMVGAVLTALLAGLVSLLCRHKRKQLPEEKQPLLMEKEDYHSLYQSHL
Description: Human tyrosinase was prepared from the HM3KO human melanoma cell line. HM3KO cells were cultured in modified Eagles medium supplemented with 10% fetal calf serum. Cultured cells were removed from culture dishes and washed once with PBS buffer and centrifuged. The cell pellet was sonicated in 100 mM sodium phosphate buffer (pH6.8) containing 0.1 mM phenylmethylsulfonyl fluoride (PMSF) and 1% Triton X-100, incubated in ice for 1 hr to solubilize the tyrosinase, and centrifuged. The supernatant was dialyzed against 50 mM sodium phosphate buffer (pH 6.8) and then used as the source of human tyrosinase for use in our inhibition assays.
As in the mushroom and murine tyrosinase experiments discussed above, the amount of dopachrome in the reaction mixture was determined spectrophotmetrically using absorbance measurement at 490 nm.

[3] = system: murine melanoma B16 cells; assay: Melanin production in murine melanoma B-16 cells; type: cell-based; details: for Melanin production (%): B16 cells, 3 days
Description: The melanoma cell line was grown in DMEM culture medium containing 4.5 g of glucose/l, 10% fetal bovine serum and 1% antibiotic agent and cultivated at 37° C. under a condition of 5% CO2. The cell suspension was inoculated in a 50 mL T-flask (3×10^5 cells/mL) and the cells were allowed to completely adhere to the plate for 24 hr. Then, test samples diluted in DMEM medium at concentrations of 1, 5, 10, 50, and 100 μg/mL were added to the cultivated cells, and the mixture was cultivated at 5% CO2 and 37° C. for 3 days. After cultivation, culture medium was thoroughly removed and the cells were isolated via trypsin treatment. The suspensions were then centrifuged for 5 min to collect cells. The obtained cells were treated with 5% trichloroacetic acid (TCA), stirred and centrifuged. The precipitated melanin was washed with phosphate buffered saline (PBS), and treated with 1 N NaOH to dissolve the melanin therein. Absorbance at 475 nm was measured. Melanin concentration was determined from a standard concentration curve of synthetic melanin (SIGMA Co., USA).

Murine Tyrosinase = biological target: T2, Murine Tyrosinase (Mus musculus, UniProt P11344); assay: Inhibitory effects on murine tyrosinase prepared from melanoma B-16 cells; type: biochemical; details: tyrosinase from melanoma B-16 cells
T2 construct: supernatant was dialyzed against 50 mM sodium phosphate buffer (pH 6.8) and then used as a source of murine tyrosinase; endogenous in cells; host or cells: murine melanoma B-16 cells (Triton X-100 extract, dialysed supernatant)
T2 sequence (P11344 19-533): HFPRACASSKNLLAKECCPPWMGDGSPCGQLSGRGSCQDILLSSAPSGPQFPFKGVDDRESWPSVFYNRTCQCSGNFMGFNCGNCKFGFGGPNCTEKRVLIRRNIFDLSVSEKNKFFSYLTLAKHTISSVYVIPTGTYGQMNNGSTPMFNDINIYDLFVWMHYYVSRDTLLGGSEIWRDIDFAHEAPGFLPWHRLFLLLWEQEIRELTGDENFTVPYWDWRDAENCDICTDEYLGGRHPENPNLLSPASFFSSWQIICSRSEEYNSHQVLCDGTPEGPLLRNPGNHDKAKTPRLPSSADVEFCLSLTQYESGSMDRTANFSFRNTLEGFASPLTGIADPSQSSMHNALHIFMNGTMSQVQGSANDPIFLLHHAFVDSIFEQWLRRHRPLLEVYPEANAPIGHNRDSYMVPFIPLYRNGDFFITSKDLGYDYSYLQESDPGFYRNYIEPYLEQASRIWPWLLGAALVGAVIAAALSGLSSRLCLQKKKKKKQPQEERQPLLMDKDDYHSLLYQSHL
Description: Murine tyrosinase was prepared from the melanoma B-16 cell line. Murine melanoma B-16 cells were grown in DMEM (13.4 mg/mL of Dulbecco's modified Eagle's medium, 24 mM NaHCO3, 10 mM HEPES, 143 units/mL of penicillin G potassium, 160 μg/mL of streptomycin sulfate, pH 7.1) containing 10% fetal bovine serum (FBS) with 5% CO2 at 37° C. When the cells were confluent, melanoma cells were removed from culture dishes and washed once with PBS buffer. The cell suspension was centrifuged at 250×g for 10 min at 4° C. The cell pellet was suspended in 0.5 mL of 50 mM sodium phosphate buffer (pH 6.8) containing 0.1 mM phenylmethylsulfonyl fluoride and 0.5% Triton X-100. The cell suspension was sonicated six times for 30 sec each with 1 min intervals and then incubated at 4° C. for 1 hr to solubilize the tyrosinase. After centrifugation at 50,000×g for 20 min at 4° C., supernatant was dialyzed against 50 mM sodium phosphate buffer (pH 6.8) and then used as a source of murine tyrosinase.
As in the mushroom tyrosinase experiment discussed above, the amount of dopachrome in the reaction mixture was determined spectrophotmetrically using absorbance measurement at 490 nm.

tyrosinase mRNA = assay: RT-PCR analysis of tyrosinase mRNA in murine melanoma B-16 cells; type: cell-based; details: FIG. 5
Description: To elucidate the mechanism by which Morus alba extract and mulberroside A exerts its effect, RT-PCR analysis was performed. mRNA from cultured murine melanoma B-16 cells were isolated using a Promega polytract system 1000 mRNA isolation kit. Approximately 80 to 100 μg of mRNA was isolated from 10^8 cells. We synthesized the 3′ primer 5′[…]3′ (nucleotides 197-216 from the ATG start codon) and the 5′ primer 5′[…]3′ (nucleotides 669-688 from the ATG start codon) for use in the RT-PCR analysis of tyrosinase mRNA.
This mixture was incubated for 1 minute at 94° C., then for 30 seconds at 55° C. and finally for 10 minutes at 72° C.
For PCR amplification of cDNA, 80 μL of a PCR mixture containing 8 μL of 10× chelating buffer, 1 mM MgCl2 and 50 pmole of 5′ primer was added to the reverse transcription reaction mixture. DNA amplification was performed on a Perkin Elmer Gene Amp PCR system 2400 thermal cycler. The PCR cycle conditions included melting for 30 sec at 94° C., annealing for 30 sec at 55° C., and extension for 1 min at 72° C. The PCR ran for 28 cycles, and the products (492 bp) were analyzed by 2% agarose gel electrophoresis. As an internal control, mouse β-actin mRNA was also amplified using the mouse β-actin amplimer set (Clontech, USA).

## OC[C@H]1O[C@@H](Oc2cc(O)cc(/C=C/c3ccc(O[C@@H]4O[C@H](CO)[C@@H](O)[C@H](O)[C@H]4O)cc3O)c2)[C@H](O)[C@@H](O)[C@@H]1O [Mulberroside A, mulberroside A]
melan-a cell line; 1 μg/mL
  Melanin production (%): 98.5 ± 7.2%
melan-a cell line; 5 μg/mL
  Melanin production (%): 93.6 ± 4.8%
melan-a cell line; 10 μg/mL
  Melanin production (%): 92.8 ± 6.5%
melan-a cell line; 50 μg/mL
  Melanin production (%): 61.2 ± 8.0%
melan-a cell line; 100 μg/mL
  reduction in melanin production: 76.3%
  Melanin production (%): 23.7 ± 3.8%
Mushroom Tyrosinase [1]; 37° C., 15 min, L-tyrosine substrate
  IC50: 9.5 µM
Mushroom Tyrosinase [1]; FIGS. 1 and 2
  inhibitory effect on mushroom tyrosinase (in words): the most potent inhibitors of mushroom tyrosinase
Mushroom Tyrosinase [2]; from IC50 values after 24 hours incubation
  fold stronger inhibitory effect on tyrosinase activity than kojic acid: 12 fold
Mushroom Tyrosinase [2]; read-out: IC50 for tyrosinase inhibition after 24 hours incubation, 24 hours incubation
  IC50: 20 µM
melanocytes
  pigmentation of treated cells observed microscopically: Reduced pigmentation
Human Tyrosinase
  IC50: 76.8 µM
[3]; 1 μg/mL
  Melanin production (%): 98.3 ± 1.0%
[3]; 5 μg/mL
  Melanin production (%): 92.4 ± 2.1%
[3]; 10 μg/mL
  Melanin production (%): 91.2 ± 7.3%
[3]; 50 μg/mL
  Melanin production (%): 59.8 ± 9.0%
[3]; 100 μg/mL
  Melanin production (%): 21.8 ± 5.4%
[3]; melanoma B-16 cells, 100 μg/mL
  reduction in melanin production: 78.2%
Murine Tyrosinase
  IC50: 61.5 µM
Tyrosinase mRNA
  amount of tyrosinase mRNA: decreased the amount of tyrosinase mRNA in a dose-dependent manner
